# From US8592464B2, “Nitric oxide furoxan derivative compounds endowed with antitumoral activity” (Humanitas Mirasole S.p.A., priority 2009, dated 2013)
# Test system: cytolytic activity of CD8+ T cells against allogenic (MBL-2) target cells
# Assay: Chromium release assay (in vitro cytotoxicity), B6+Balb+3% CD11b+ mixed leucocytes culture
# Type: cell-based, mice
# Settings: 5-h 51Cr-release
row,SMILES,Range of concentration to rescue cytolytic activity
1,NC(=O)c1c(COC(=O)c2ccccc2)no[n+]1[O-] [AT44],76 µM
2,CC(=O)OCc1no[n+]([O-])c1C(N)=O [AT24],INEFFECTIVE
3,NC(=O)c1c(COC(=O)c2ccc(O)cc2)no[n+]1[O-] [AT45],72 µM

# Test system: coloncarcinoma26
# Assay: Immunohistochemistry of tumors of tumor-bearing mice after oral AT38
# Type: in vivo, BALB/c mice
# Settings: 10, 30 and 100 mg/kg/day orally for nine days; compared to untreated controls
SMILES,CD3+ T tumor infiltrating lymphocytes,nitrotyrosine staining
NC(=O)c1c(COC(=O)c2ccccc2O)no[n+]1[O-] [AT38],enhancement,strong reduction

# Test system: not given
# Assay: not given
# Settings: not given
row,melting point,SMILES
1,171 to 172 °C,NC(=O)c1c(COC(=O)c2ccc(Cl)cc2)no[n+]1[O-]
2,203 to 204 °C,NC(=O)c1c(COC(=O)c2cccc(O)c2)no[n+]1[O-] (hydrate or solvate)
3,172 to 173 °C,NC(=O)c1c(COC(=O)c2ccc([N+](=O)[O-])cc2)no[n+]1[O-] (hydrate or solvate)
4,175 to 176 °C,COc1ccc(C(=O)OCc2no[n+]([O-])c2C(N)=O)cc1 (hydrate or solvate)
5,190 to 191 °C,N#Cc1ccc(C(=O)OCc2no[n+]([O-])c2C(N)=O)cc1
6,149 to 150 °C,Cc1ccc(C(=O)OCc2no[n+]([O-])c2C(N)=O)cc1 (hydrate or solvate)
7,241 to 242 °C,NC(=O)c1c(COC(=O)c2ccc(O)cc2)no[n+]1[O-] (hydrate or solvate)
8,206 to 208 °C,NC(=O)c1c(COC(=O)c2ccc(N)cc2)no[n+]1[O-] (hydrate or solvate)
9,176 to 177 °C,NC(=O)c1c(COC(=O)c2ccccc2O)no[n+]1[O-] (hydrate or solvate)
10,163 to 165 °C,NC(=O)c1c(COC(=O)c2ccccc2)no[n+]1[O-] (hydrate or solvate)
11,163 to 164 °C,NC(=O)c1c(COC(=O)c2ccc(F)cc2)no[n+]1[O-] (hydrate or solvate)

# Test system: cytolytic activity of CD8+ T cells against allogenic (MBL-2) target cells
# Assay: Chromium release assay (in vitro cytotoxicity), B6+C26GM culture: immunosuppressed splenocytes from tumor-bearing mice
# Type: cell-based
# Settings: strong immunosuppressive conditions, 5-h 51Cr-release
row,SMILES,Range of concentration to rescue cytolytic activity
1,NC(=O)c1c(COC(=O)c2cccnc2)no[n+]1[O-] [AT112],200 µM
2,CC(=O)Oc1ccccc1C(=O)OCc1no[n+]([O-])c1C(N)=O [AT27],25 µM
3,NC(=O)c1c(COC(=O)/C=C/c2ccccc2O)no[n+]1[O-] [AT113],100 µM
4,NC(=O)c1c(COC(=O)c2ccccc2)no[n+]1[O-] [AT44],INEFFECTIVE
5,NC(=O)c1c(COC(=O)c2ccccc2O)no[n+]1[O-] [AT38],25 µM
6,NC(=O)c1c(COC(=O)/C=C/c2ccccc2)no[n+]1[O-] [AT110],100 µM
7,CC(=O)OCc1no[n+]([O-])c1C(N)=O [AT24],INEFFECTIVE
8,NC(=O)c1c(COC(=O)c2cccc(O)c2)no[n+]1[O-] [AT47],50 µM
9,NC(=O)c1c(S(=O)(=O)c2ccccc2)no[n+]1[O-] [AT94],INEFFECTIVE
10,NC(=O)c1c(COC(=O)c2ccc(O)cc2)no[n+]1[O-] [AT45],100 µM
11,NC(=O)c1c(COc2ccc(C(=O)O)c(O)c2)no[n+]1[O-] [AT43],INEFFECTIVE
12,CC(=O)OCc1no[n+]([O-])c1C#N [AT25],INEFFECTIVE
